Converted amounts (≈) assume the structure as drawn. Where two headings read alike, the source gives them in different places.
Tests used:
HSV-1 and HSV-2 = experiment: HSV cytopathic effect (CPE) reduction assay, laboratory strains, HEL cell monolayers and PHKs; assay type: cell-based, herpes simplex virus; conditions: HEL, read-out: EC50, inhibition of virus-induced cytopathicity
[1] = test system: HSV-1 wt clinical isolates; experiment: HSV CPE reduction assay, clinical isolates in HEL fibroblast cell cultures; assay type: cell-based; conditions: Human alphaherpesvirus 1, Fibroblast
[2] = test system: thymidine kinase-deficient HSV-1 clinical isolates; experiment: microbe, parasite or virus in culture; assay type: cell-based; conditions: Human alphaherpesvirus 1, Fibroblast
[3] = test system: HSV-2 wt clinical isolates; experiment: HSV CPE reduction assay, clinical isolates in HEL fibroblast cell cultures; assay type: cell-based; conditions: Human alphaherpesvirus 2, Fibroblast
[4] = test system: thymidine kinase-deficient HSV-2 clinical isolates; experiment: microbe, parasite or virus in culture; assay type: cell-based; conditions: Human alphaherpesvirus 2, Fibroblast
HSV-2 (G) = experiment: Co-infection of TZM-bl cells with HIV-1 and HSV-2: HSV-2-induced cytopathicity; assay type: cell-based; conditions: TZM-bl cultures co-infected with HIV-1(NL4.3) and HSV-2(G)
Description: The TZM-bl cell line is derived from HeLa cells and expresses high levels of CD4, CCR5 and CXCR4. In addition, this cell line is stably transduced with a LTR-driven firefly luciferase and E. coli-galactosidase gene (15). In a 96-well tray, 10,000 TZM-bl cells were seeded on day 1. […] Next, 100 μl of a virus suspension containing either HIV-1 (NL4.3), HSV-2 (G) or both viruses together was administered. Two to three days post infection, HIV-1 infection was monitored based on the determination of luciferase activity. For this means, 100 μl of culture supernatant was removed and 100 μl of Bright-Glo Luciferase Assay Substrate (Promega, Madison, USA) was added. The luminescence signal was measured using the Safire 2 microtiter plate reader (Tecan, Männedorf, Switzerland). A control condition containing only mock-infected cells was also included to measure the background luminescence levels. Three days post infection, HSV-2-induced cytopathicity was recorded microscopically based on giant cell formation.

HSV-1 (KOS) = experiment: Organotypic epithelial raft cultures infected with HSV-1; assay type: cell-based
Description: For the preparation of epidermal equivalents, a collagen matrix solution was made with collagen mixed on ice with 10-fold concentrated HAM's F12 media, 10-fold reconstitution buffer and Swiss 3T3 J2 fibroblasts. One milliliter of the collagen matrix solution was poured into the wells of 24-well microtiter plates. After gel equilibration with 1 ml of growth medium overnight at 37° C., 2.5×10^5 PHK cells were seeded on the top of the gels and maintained submerged for 24-48 hours. The collagen rafts were raised and placed onto stainless-steel grids at the interface between air and liquid culture medium. The growth medium was a mixture of ⅓ HAM F12 and ⅔ Dulbecco's modified Eagle's medium, with the same supplements as used for the Keratinocyte-SFM. Epithelial cells were allowed to stratify, the medium being replaced every 2-3 days. For the evaluation of the antiviral effects of the compounds in the raft system, two series of rafts were run in parallel, one for histological examination and the other one for quantification of viral production by a plaque reduction assay. Rafts were infected with 5,000 PFU of HSV-1 (KOS) or […] strains after 10 days post-lifting and then the medium was replaced by medium containing different dilutions of the compounds. The growth medium containing the different concentrations of the compounds was changed two days later and 3 days later (after 15 days of differentiation), one series of rafts was fixed in 10% buffered formalin, embedded in paraffin and stained with hematoxylin and eosin for histological evaluation. Another series of rafts was used to quantify virus production. For that purpose, each raft was frozen in 3 ml phosphate buffer saline (PBS) and thawed to release the virus from the infected epithelium. Supernatants were clarified by centrifugation at 1,800 rpm and titrated by a plaque assay in HEL cell cultures. Virus production in each raft was then calculated. Two rafts were used for each drug concentration to determine the effects of the compounds on virus yield.

HSV-2 strain G (HSV-2G) = experiment: Human ex vivo tonsillar tissue, HSV DNA release by real-time PCR; assay type: cell-based
Description: For each experimental condition 16 tissue blocks were immersed in 500 μl of a HSV-2 (strain G) suspension for 2 hours at 37° C., washed three times with PBS and then placed on the gelfoam rafts. Tenofovir was added during the infection and replenished at each culture medium change. Herpes simplex viral replication was evaluated by the release of viral DNA into the culture medium as measured by quantitative real-time PCR (17). HIV-1 replication was evaluated by the release of p24 capsid antigen using a bead-based assay (18).

HSV-1 (Kos strain) = experiment: In vivo antiviral activity in HSV-1-infected NMRI athymic nude mice; conditions: 1% topical, 5 days
Description: (§1) Adult NMRI athymic nude mice (weighing ˜20 g) were scarified on the lumbosacral area over a surface of about 1 cm^2. Mice were inoculated with 5×10^3 PFU of HSV-1 (Kos strain) or 5×10^2 of HSV-2 (G strain) in 50 μL per mouse. […] In each experiment, a group of animals treated with a placebo formulation that was the same as the test formulation without drug was included as a negative control. […] The day of virus inoculation was always considered as day 0. All animal procedures were approved by the K.U. Leuven Animal Care Committee. Development of lesions and mortality were recorded over a one month period. Animals were euthanized when more than 30% loss in body weight or development of paralysis occurred. Survival rates were estimated according to the Kaplan-Meir method and were compared using the log-rank test (Mantel-Cox) test (GraphPad Prism).

HSV-2 (G strain) = experiment: In vivo antiviral activity in HSV-2-infected NMRI athymic nude mice
Description: as §1

HIV-1 = conditions: cited from earlier work

## C[C@H](Cn1cnc2c(N)ncnc21)OCP(=O)(O)O [tenofovir, (R)-9-(2-phosphonylmethoxypropyl)adenine]
HSV-1 and HSV-2
  EC50: 100 to 200 µg/mL (≈ 348 to 696 µM)
[1]; read-out: mean EC50
  EC50: 130 µg/mL (≈ 453 µM)
[1]; read-out: range of EC50
  EC50: 114 to 160 µg/mL (≈ 397 to 557 µM)
[2]; read-out: mean EC50
  EC50: ≥ 166 µg/mL
[2]; read-out: range of EC50
  EC50: ≥ 117 µg/mL
[3]; read-out: mean EC50
  EC50: ≥ 157 µg/mL
[3]; read-out: range of EC50
  EC50: ≥ 125 µg/mL
[4]; read-out: mean EC50
  EC50: 152 µg/mL (≈ 529 µM)
[4]; read-out: range of EC50
  EC50: 131 to 179 µg/mL (≈ 456 to 623 µM)
HSV-2 (G)
  drug concentration that prevented HSV-2 infection: ~60 µg/mL
HSV-1 (KOS); 20 μg/ml
  protection of the epithelium from HSV-1-induced cytopathic effect: full destruction
HSV-1 (KOS); 50 μg/ml
  protection of the epithelium from HSV-1-induced cytopathic effect: partial protection
HSV-1 (KOS); HSV-1, 50 μg/ml
  reduction in virus yield: 0.81 logs
HSV-1 (KOS); HSV-1, 200 μg/ml
  log reduction in virus production (PFU) per raft: 2.6 log
HSV-1 (KOS); reference HSV-1 laboratory strain
  concentration giving complete protection from virus-induced cytopathic effect: 200 µg/mL
HSV-2 strain G (HSV-2G); 66 μg/ml, HSV-2G
  reduction of replication compared to infected donor matched-untreated tissue: 94±7%
HSV-2 strain G (HSV-2G); 66 μg/ml, day 9 post infection, IQR 3.6-6.1, untreated 7.6
  release of viral DNA in culture medium: 5.2 log10 DNA copies/ml
HSV-2 strain G (HSV-2G); Human alphaherpesvirus 2, read-out: EC50, suppression of replication
  EC50: 14 µg/mL (≈ 48.7 µM)
HSV-1 (Kos strain)
  morbidity and survival curves compared to the placebo-treated group: significantly delayed
HSV-2 (G strain); DMSO formulation, starting the day of infection
  survival curves and morbidity curves versus the placebo group: statistically significant difference
HSV-2 (G strain); formulated in the gel at 1%
  appearance of lesions and subsequent death: delayed the appearance of herpes virus-related lesions and subsequent death
HIV-1; 1% gel, women with high adherence
  reduction of HIV-1 transmission: 54%
HIV-1; formulated as a 1% gel, approximately 900 African women
  overall decrease in the frequency of the sexual transmission of HIV-1: 39%

Source: patent US20130216590A1, “TOPICAL ANTIVIRAL FORMULATIONS FOR PREVENTION OF TRANSMISSION OF HSV-2” (priority 2010, published 2013)
